Patent publication US10197583B2, “Hydroxycholesterol immunoassay” (ENZO LIFE SCIENCES, INC. C/O ENZO BIOCHEM, INC., priority 2010, dated 2019)

Tests used:
[1] = test system: rabbit antisera to 24S-hydroxycholesterol (Day 77, rabbit #71); experiment: Cross-reactivity in competitive 24HC enzyme immunoassay, antiserum of rabbit #71; format: binding; settings: Table 3; antiserum Day 77, rabbit #71
Procedure: (§1) 24HC Enzyme Immunoassay Protocol
(§2) 1. Known concentrations of 24HC were prepared in 100 mM phosphate, 150 mM NaCl, 1% BSA, pH 7.2 assay buffer containing biotinylated […] (described above) and added to wells of a 96 well microtiter plate that were coated with a goat anti-rabbit IgG antibody. Rabbit polyclonal antibody to 24HC was diluted to a limiting concentration in 100 mM Tris, 150 mM NaCl, 1% BSA buffer and 100 μL was added to each well. The plate was incubated at room temperature for 1 hour with orbital shaking. During this incubation the anti-24HC antibody binds to the goat anti-rabbit IgG antibody on the plate. Also, the 24HC standard competes with the biotinylated 24HC for anti-24HC antibody binding sites. Thus, with more 24HC standard, less biotinylated 24HC binds to the antibody binding sites on the plate.
(§3) 2. Following this incubation, the plate was washed 4 times with 300 μL of 50 mM Tris, 100 mM NaCl, 0.05% Tween-20 buffer. After washing, bound 24HC or bound biotinylated 24HC is bound to the binding sites on the anti-24HC antibodies.
(§4) 3. Streptavidin conjugated to HRP (200 μL), diluted in 100 mM phosphate, 150 mM NaCl, 1% BSA, pH 7.2 assay buffer, was then added to each well to allow detection of the biotinylated 24HC. The plate was then incubated at room temperature for 30 minutes.
(§5) 4. The plate was then washed 4 times with 300 μL of 50 mM Tris, 100 mM NaCl, 0.05% Tween-20 buffer to remove excess streptavidin-HRP conjugate. TMB substrate solution (200 μL) is added to each well. The plates were incubated at room temperature for 30 min.
(§6) 5. After color development, 50 μL of 1N HCl stop solution is added to each well to stop the substrate reaction. The resulting yellow color was read at 450 nm. […]. The intensity of yellow color is inversely proportional to the concentration of 24HC that was added to the well.
(§7) Cross-reactivities of antisera taken from another rabbit at Day 77 (rabbit #71), subjected to the same immunization protocol, as well as a repeat of the rabbit #72 antisera, were also determined.

[2] = test system: rabbit antisera to 24S-hydroxycholesterol (Day 77 bleed, rabbit #72); experiment: Cross-reactivity in competitive 24HC enzyme immunoassay, antiserum of rabbit #72; format: binding; settings: for % Cross reactivity: Table 2, antiserum Day 77 bleed, rabbit #72, relative to 24HC; for Bleed #72 % Cross reactivity: Table 3, repeat of the rabbit #72 antisera
Procedure: as §1, §2, §3, §4, §5, §6
The multiple regression line shown therein has an R^2 of 0.996. The detectable range for 24HC for this assay is as shown is 1.56-100 ng/mL. The total assay time is 2 h.
Cross-reactivity of the antisera tested above (Day 77 bleed, rabbit #72) to the following structurally similar molecules was determined:
as §7

SMILES	Bleed #71 % Cross reactivity [1]	% Cross reactivity [2]	Bleed #72 % Cross reactivity [2]
CC(C)CC[C@@H](O)[C@@H](C)[C@H]1CC[C@H]2[C@@H]3CC=C4CC(O)CC[C@]4(C)[C@H]3CC[C@]12C (stereo in doubt) [22-Hydroxycholesterol]	0.020%	0.15%	0.11%
C[C@H](CCCC(C)(C)O)[C@H]1CC[C@H]2[C@@H]3CC=C4C[C@@H](O)CC[C@]4(C)[C@H]3CC[C@]12C [25-Hydroxycholesterol]	0.19%	–	0.725%
C[C@@H](CO)CCC[C@@H](C)[C@H]1CC[C@H]2[C@@H]3CC=C4C[C@@H](O)CC[C@]4(C)[C@H]3CC[C@]12C [27-Hydroxycholesterol]	0.022%	–	<0.001%
CC(C)CCC[C@@H](C)[C@H]1CC[C@H]2[C@@H]3CC=C4C[C@@H](O)CC[C@]4(C)[C@H]3CC[C@]12C [Cholesterol]	0.002%	<0.001%	0.003%
C[C@]12CC[C@H](O)CC1=CC[C@@H]1[C@@H]2CC[C@]2(C)C(=O)CC[C@@H]12 [DHEA]	0.015%	0.05%	0.018%
